Series [1] relates to 4KO E. coli strain. The note with it: for E. coli Growth Rate (μ): 4KO E. coli, BFM + betaine, 30° C.
Experimental: From a frozen vial, 25 mL of seed culture was grown in Difco LB broth, Miller medium, purchased from BD Laboratories (Becton & Dickinson and Company, Sparks, Md., 21152, USA) at 30° C., 200 RPM. […] Samples were withdrawn at defined time points to monitor biomass growth as measured by OD600. Growth rates were calculated from the biomass time profiles by fitting exponential growth rate equations.
The conditions of series [2]: oleyl alcohol/BFM, 30° C.
Text: The aqueous and organic phases in each flask were separated by decantation.
Each data point corresponding to a specified level of electrolyte as shown in Table 3 and Table 4 was repeated twice and values for Kp reported as the average of the two flasks.
For series [3] the following is noted: Example 3 fermentation, oleyl alcohol. The protocol: Filter sterilized solutions of ampicillin, thiamine hydrochloride, and glucose were added to the fermentor medium, post sterilization, to a final concentration of 100 mg/L, 5 mg/L and 20 g/L respectively. Fermentations were run using a 1 L autoclavable bioreactor, Bio Console ADI 1025 (Applikon, Inc, Holland) with a working volume of 900 mL. The temperature was maintained at 30° C. during the entire fermentation and the pH was maintained at 6.8 using ammonium hydroxide. Following inoculation of the sterile fermentation medium with seed culture (2-10 vol %), the fermentor was operated aerobically at a 30% dissolved oxygen (DO) set point with 0.3 vvm of air flow by automatic control of the agitation rate (rpm). […] Four hours post induction, fermentation conditions were switched to microaerobic conditions by decreasing the airflow to 0.13 slpm and setting the DO set point to 3-5%. […] Glucose was added as a bolus (50 wt % stock solution) to the fermentor on a need basis to keep levels of glucose between 20 g/L and 2 g/L.
Glucose levels were monitored using HPLC and YSI as described above herein.

Series [4] in a line: Activity of enzyme expressed from sadB gene in cell-free extracts of Mach1/pTrc99a::sadB. The note with it: isobutyraldehyde as the standard. It counts as biochemical, Achromobacter xylosoxidans. The method, then: The sadB coding region was then cloned into the vector pTrc99a (Amann et al., Gene 69: 301-315, 1988). The pCR4Blunt::sadB was digested with EcoRI, releasing the sadB fragment, which was ligated with EcoRI-digested pTrc99a to generate pTrc99a::sadB. This plasmid was transformed into E. coli Mach 1 cells and the resulting transformant was named Mach1/pTrc99a::sadB. The activity of the enzyme expressed from the sadB gene in these cells was determined to be 3.5 mmol/min/mg protein in cell-free extracts when analyzed using isobutyraldehyde as the standard.

Read-outs that look alike come from different tables or passages of the source.

For `O=S(=O)([O-])[O-].[Na+].[Na+]` [Na2SO4, Sodium sulfate], in series [1] (1M salt concentration), the “drop in growth rate” value is reported as “greater than 80%”. Besides, the “E. coli Growth Rate (μ)” value in series [1] (Na2SO4 added 0.03 mole/L, total salts 0.17 moles/L) worked out at 0.79 h⁻¹; in series [1] (Na2SO4 added 0.07 mole/L, total salts 0.21 moles/L) it was 0.79 h⁻¹; in series [1] (Na2SO4 added 0.15 mole/L, total salts 0.29 moles/L) it was 0.79 h⁻¹; in series [1] (Na2SO4 added 0.22 mole/L, total salts 0.36 moles/L) it was 0.74 h⁻¹; in series [1] (Na2SO4 added 0.29 mole/L, total salts 0.43 moles/L), 0.69 h⁻¹; in series [1] (Na2SO4 added 0.44 mole/L, total salts 0.58 moles/L) it was 0.60 h⁻¹. The “E. coli Growth Rate (μ)” value is 0.55 h⁻¹ in series [1] (Na2SO4 added 0.67 mole/L, total salts 0.81 moles/L); 0.14 h⁻¹ in series [1] (Na2SO4 added 1.00 mole/L, total salts 1.14 moles/L); “Negligible growth” in series [1] (Na2SO4 added 1.33 mole/L, total salts 1.47 moles/L); “Negligible Growth” in series [1] (Na2SO4 added 2.00 mole/L, total salts 2.14 moles/L). Besides, the “loss of growth rate compared to no electrolyte control” value in series [1] (about 0.67 M Na2SO4 (total salt level of 0.81 M)) stood at 30%.

On to Isobutanol, for which the Kp in series [2] (Na2SO4 added 0.00 moles/L, total salts 0.14 moles/L) is reported as 4.80; in series [2] (Na2SO4 added 0.03 moles/L, total salts 0.17 moles/L), 5.03; in series [2] (Na2SO4 added 0.07 moles/L, total salts 0.21 moles/L) it was 5.25; in series [2] (Na2SO4 added 0.15 moles/L, total salts 0.29 moles/L), 5.78; in series [2] (Na2SO4 added 0.22 moles/L, total salts 0.36 moles/L), 6.37; in series [2] (Na2SO4 added 0.29 moles/L, total salts 0.43 moles/L), 7.12. The Kp in series [2] (Na2SO4 added 0.44 moles/L, total salts 0.58 moles/L) is listed as 8.34; in series [2] (Na2SO4 added 0.67 moles/L, total salts 0.81 moles/L), 10.50; in series [2] (Na2SO4 added 1.00 moles/L, total salts 1.14 moles/L) it was 15.95; in series [2] (Na2SO4 added 1.33 moles/L, total salts 1.47 moles/L), 24.68; in series [2] (Na2SO4 added 2.00 moles/L, total salts 2.14 moles/L), 60.99; in series [2] (NaCl added 0.00 moles/L, total salt 0.14 moles/L) it was 4.87. Further, the Kp in series [2] (NaCl added 0.01 moles/L, total salt 0.15 moles/L) was found to be 4.87; in series [2] (NaCl added 0.04 moles/L, total salt 0.18 moles/L) it was 4.89; in series [2] (NaCl added 0.07 moles/L, total salt 0.21 moles/L) it was 4.95; in series [2] (NaCl added 0.11 moles/L, total salt 0.25 moles/L) it was 5.00; in series [2] (NaCl added 0.14 moles/L, total salt 0.28 moles/L), 5.00; in series [2] (NaCl added 0.21 moles/L, total salt 0.35 moles/L) it was 5.22. Moreover, the Kp in series [2] (NaCl added 0.33 moles/L, total salt 0.47 moles/L) was 5.04; in series [2] (NaCl added 0.67 moles/L, total salt 0.81 moles/L), 5.91; in series [2] (NaCl added 1.00 moles/L, total salt 1.14 moles/L), 6.88; in series [2] (NaCl added 1.33 moles/L, total salt 1.47 moles/L) it was 8.06. The “Kp [Conc in OA phase]/[Conc in Aq Phase]” value is listed as 3.1 in series [3] (Na2SO4 added 0 moles/L, total salts 0.05 moles/L); 4.5 in series [3] (Na2SO4 added 0.28 moles/L, total salts 0.33 moles/L); 5.4 in series [3] (Na2SO4 added 0.42 moles/L, total salts 0.47 moles/L).

B1: enzyme expressed from the sadB gene: butanol dehydrogenase from Achromobacter xylosoxidans (protein SEQ ID NO: 10) (protein)
chain: MKALVYHGDHKISLEDKPKPTLQKPTDVVVRVLKTTICGTDLGIYKGKNPEVADGRILGHEGVGVIEEVGESVTQFKKGDKVLISCVTSCGSCDYCKKQLYSHCRDGGWILGYMIDGVQAEYVRIPHADNSLYKIPQTIDDEIAVLLSDILPTGHEIGVQYGNVQPGDAVAIVGAGPVGMSVLLTAQFYSPSTIIVIDMDENRLQLAKELGATHTINSGTENVVEAVHRIAAEGVDVAIEAVGIPATWDICQEIVKPGAHIANVGVHGVKVDFEIQKLWIKNLTITTGLVNTNTTPMLMKVASTDKLPLKKMITHRFELAEIEHAYQVFLNGAKEKAMKIILSNAGAA
modifications: Achromobacter xyloxidans
With B1, the “activity of the enzyme” value in series [4] amounted to 3.5 mmol/min/mg protein.

(Values after patent publication US8969055B2 (priority 2009, dated 2015).)
